In PMC9405216, “Antimicrobial and Cytotoxic Cyathane-Xylosides from Cultures of the Basidiomycete Dentipellis fragilis” (Antibiotics, 2022):
Values after ≈ are worked out from the molar mass of the structure shown. Where two headings read alike, the source gives them in different places. Marks after values point to notes of the source that are not given here.

Experiments:
Assay type in all cases: cell-based
[1] = system: Bacillus subtilis (DSM 10); assay: Serial dilution MIC assay, Bacillus subtilis; details: overnight incubation, n.i. = no inhibition
Method: (§1) Serial dilution assays in 96-well microtiter plates were performed according to our standard protocol in order to determine the minimum inhibitory concentrations (MICs) of pure isolated compounds against different microorganisms. Essentially, aliquots of compounds 1–5 and 9 (20 µL), each with an initial concentration of 1 mg/mL, were diluted in MeOH together with the respective microorganisms to concentrations ranging between 67 µg/mL and 0.5 µg/mL in the 96-well plates, followed by overnight incubation. The MIC was then determined as the lowest concentration at which no growth of the test organism was observed. A broad spectrum of clinically approved test pathogens and sensitivity indicator strains were used in the assays (Table 4 and Table 5). Ciprofloxacin, oxytetracycline, kanamycin, and gentamycin were used as positive controls against bacterial pathogens, while nystatin was used as the positive control against fungi.

[2] = system: Mycolicibacterium smegmatis (ATCC 700084); assay: Serial dilution MIC assay, Mycolicibacterium smegmatis; details: serial dilution 67-0.5 µg/mL, overnight incubation, n.i. = no inhibition
Method: as §1

[3] = system: Staphylococcus aureus (DSM 346); assay: Serial dilution MIC assay, Staphylococcus aureus; details: overnight incubation, n.i. = no inhibition
Method: as §1

[4] = system: Actinobacter baumannii (DSM 30008); assay: Serial dilution MIC assay, Actinobacter baumannii; details: serial dilution 67-0.5 µg/mL, overnight incubation, n.i. = no inhibition
Method: as §1

[5] = system: Chromobacterium violaceum (DSM 30191); assay: Serial dilution MIC assay, Chromobacterium violaceum; details: overnight incubation, n.i. = no inhibition
Method: as §1

[6] = system: Escherichia coli (DSM 1116); assay: Serial dilution MIC assay, Escherichia coli; details: overnight incubation, n.i. = no inhibition
Method: as §1

[7] = system: Pseudomonas aeruginosa (DSM PA14); assay: Serial dilution MIC assay, Pseudomonas aeruginosa; details: serial dilution 67-0.5 µg/mL, overnight incubation, n.i. = no inhibition
Method: as §1

[8] = system: Candida albicans (DSM 1665); assay: Serial dilution MIC assay, Candida albicans; details: serial dilution 67-0.5 µg/mL, overnight incubation, n.i. = no inhibition
Method: as §1

[9] = system: Pichia anomala (DSM 6766); assay: Serial dilution MIC assay, Pichia anomala; details: serial dilution 67-0.5 µg/mL, overnight incubation, n.i. = no inhibition
Method: as §1

[10] = system: Rhodotorula glutinis (DSM 10134); assay: Serial dilution MIC assay, Rhodotorula glutinis; details: overnight incubation, n.i. = no inhibition
Method: as §1

[11] = system: Schizosaccharomyces pombe (DSM 70572); assay: Serial dilution MIC assay, Schizosaccharomyces pombe; details: serial dilution 67-0.5 µg/mL, overnight incubation, n.i. = no inhibition
Method: as §1

[12] = system: Mucor hiemalis (DSM 2656); assay: Serial dilution MIC assay, Mucor hiemalis; details: overnight incubation, n.i. = no inhibition
Method: as §1

[13] = system: L929 (ACC2) mouse fibroblasts; assay: MTT cytotoxicity test, L929; details: five days incubation, n.c. = no cytotoxicity
Source text: (§2) A panel of mammalian cell lines was used to determine the cytotoxicity of the compounds following a previously published protocol. The assay was initially performed using the sensitive cell lines KB3.1 (human endocervical adenocarcinoma) and L929 (mouse fibroblasts). Active compounds were further tested using the cell lines MCF-7 (human breast adenocarcinoma), PC-3 (human prostate adenocarcinoma), SKOV-3 (ovarian carcinoma), A549 (human lung carcinoma), and A431 (human squamous cell carcinomas) (Table 6). The cell lines A549, KB 3.1, and L929 were cultured in DMEM (Gibco, provided by Thermo Fisher Scientific), PC-3 in F12-K (Gibco) and MC-7, and SKOV-3 and A431 in RPMI (Gibco). With the exception of A549, all cell lines were supplemented with 10% bovine serum (Gibco). All cell lines were cultured at 37 °C. The L929 and KB 3.1 cell lines were cultivated under an atmosphere of 10% (v/v) carbon dioxide. Cytotoxicity tests were then carried out using MTT (3-(4,5-dimethylthiazol-2-yl)-2,5-diphenyltetrazolium bromide) in 96-well microtiter plates. Serial dilutions of the compounds (60 µL aliquots, each with an initial concentration of 1 mg/mL) were added into 120 µL aliquots of cell suspension (50000 cells/mL) in the 96-well plates. These were incubated for five days, after which an MTT assay was performed. The absorbance was taken at 590 nm using an Elisa plate reader (Victor, Überlingen, Germany). The half-maximal inhibitory concentration (IC50), the concentration at which cell growth inhibition was 50% of the control, was calculated as described elsewhere.

[14] = system: KB3.1 (ACC158) human endocervical adenocarcinoma; assay: MTT cytotoxicity test, KB3.1; details: KB3.1 human endocervical adenocarcinoma, five days incubation, n.c. = no cytotoxicity
Source text: as §2

[15] = system: tested microorganisms (bacteria and fungi); assay: Serial dilution MIC assays, whole panel of tested strains; details: all bacteria and fungi of Tables 4 and 5, result in words
Method: as §1

[16] = system: MCF-7 (A115) human breast adenocarcinoma; assay: MTT cytotoxicity test, MCF-7; details: MCF-7 human breast adenocarcinoma, five days incubation
Source text: as §2

[17] = system: A549 (ACC107) human lung carcinoma; assay: MTT cytotoxicity test, A549; details: five days incubation
Source text: as §2

[18] = system: PC-3 (ACC465) human prostate adenocarcinoma; assay: MTT cytotoxicity test, PC-3; details: PC-3 human prostate adenocarcinoma, five days incubation
Source text: as §2

[19] = system: SKOV-3 (ovarian carcinoma); assay: MTT cytotoxicity test, SKOV-3; details: five days incubation
Source text: as §2

[20] = system: A431 (ACC91) human squamous cell carcinomas; assay: MTT cytotoxicity test, A431; details: five days incubation
Source text: as §2

[21] = DSM10, serial dilution 67-0.5 µg/mL, read-out: MIC
[22] = DSM346, serial dilution 67-0.5 µg/mL, read-out: MIC
[23] = DSM10134, serial dilution 67-0.5 µg/mL, read-out: MIC
[24] = DSM2656, serial dilution 67-0.5 µg/mL, read-out: MIC
[25] = DSM30191, serial dilution 67-0.5 µg/mL, read-out: MIC

Row | Compound | MIC [1, 21] [µg/mL] | MIC [2] | MIC [3, 22] [µg/mL] | MIC [4] | MIC ([6]; serial dilution 67-0.5 µg/mL) | MIC [7] | MIC [8] | MIC [9] | MIC [11] | IC50 [13] | IC50 ([14]; KB 3-1, 120 h, read-out: IC50) [µM] | IC50 [14] | IC50 ([13]; 120 h, read-out: IC50) [µM] | also measured
1 | CC(C)C1=C2[C@H]3CC=C4[C@@H]5O[C@@H]6[C@@]7(O)[C@@H](OC[C@]6(O)O5)O[C@@H]([C@@H]47)[C@]3(C)CC[C@@]2(C)CC1=O [Compound 2, dentifragilin B] | 66.6 (≈ 150 µM) | n.i. | 66.6 (≈ 150 µM) | n.i. | n.i. | n.i. | n.i. | n.i. | n.i. | no activity | 51 |  |  | MIC ([5]; serial dilution 67-0.5 µg/mL): n.i.; MIC ([10]; serial dilution 67-0.5 µg/mL): n.i.; MIC ([12]; serial dilution 67-0.5 µg/mL): n.i.
2 | CC(C)C1=C2[C@H]3CC[C@@H]4CO[C@@]5(O)[C@H](O)CO[C@H]6O[C@@H]([C@@H]4[C@]65O)[C@]3(C)CC[C@@]2(C)CC1=O [Compound 3, dentifragilin C] |  | n.i. |  | n.i. | n.i. | n.i. | n.i. | n.i. | n.i. | not cytotoxic |  | not cytotoxic |  | MIC ([1]; serial dilution 67-0.5 µg/mL): n.i.; MIC ([3]; serial dilution 67-0.5 µg/mL): n.i.; MIC ([5]; serial dilution 67-0.5 µg/mL): n.i.; MIC ([10]; serial dilution 67-0.5 µg/mL): n.i.; MIC ([12]; serial dilution 67-0.5 µg/mL): n.i.; activity against all tested microorganisms [15]: devoid of any activity
3 | CC(C)C1=C2[C@H]3CC[C@H](CO)[C@@H]4[C@H](O[C@@H]5OC[C@@H](O)[C@H](O)[C@@]54O)[C@]3(C)CC[C@@]2(C)CC1=O [Compound 4, dentifragilin D] | 16.7 (≈ 37.1 µM) | n.i. | 33.3 (≈ 73.9 µM) | n.i. | n.i. | n.i. | n.i. | n.i. | n.i. | weak activities | 42.2 | weak activities | 48.9 | MIC ([5]; serial dilution 67-0.5 µg/mL): n.i.; MIC [10, 23]: 66.6 µg/mL (≈ 148 µM); MIC [12, 24]: 66.6 µg/mL (≈ 148 µM)
4 | CC(C)C1=C2[C@H]3CC=C(C=O)[C@@H]4[C@H](O[C@@H]5OC[C@@H](O)[C@H](O)[C@@]54O)[C@]3(C)CC[C@@]2(C)CC1 [Compound 5, dentifragilin E] | 16.7 (≈ 38.6 µM) | n.i. | 16.7 (≈ 38.6 µM) | n.i. | n.i. | n.i. | n.i. | n.i. | n.i. | weak activities | 15.7 | weak activities | 34.7 | MIC [5, 25]: 66.6 µg/mL (≈ 154 µM); MIC [10, 23]: 66.6 µg/mL (≈ 154 µM); MIC [12, 24]: 33.3 µg/mL (≈ 77 µM)
5 | CC(C)C1=C2[C@H]3CC[C@H](CO)[C@@H]4[C@H](O[C@@H]5OC[C@@H](O)[C@H](O)[C@@]54O)[C@]3(C)CC[C@@]2(C)CC1 [Compound 6, dentifragilin F] |  |  |  |  |  |  |  |  |  | not cytotoxic |  | not cytotoxic |  | 
6 | CO[C@H]1O[C@@]2(O)[C@H](O)CO[C@H]3O[C@H]4[C@@H]([C@@H]1CC[C@@H]1C5=C(C(C)C)CC[C@]5(C)CC[C@]14C)[C@]32O [Compound 7, dentifragilin G] |  |  |  |  |  |  |  |  |  | weak activities | 10.3 | weak activities | 14.9 | 
7 | CO[C@H]1O[C@H]2[C@H](O)CO[C@H]3O[C@H]4[C@@H](C1=CC[C@@H]1C5=C(C(C)C)CC[C@]5(C)CC[C@]14C)[C@]32O [Compound 8, dentifragilin H] |  |  |  |  |  |  |  |  |  |  | 2 |  | 10 | 
8 | O=C(O)c1cn(C2CC2)c2cc(N3CCNCC3)c(F)cc2c1=O [ciprofloxacin, reference compound] |  |  |  |  |  |  |  |  |  |  |  |  |  | MIC ([4]; read-out: MIC): 0.3 µg/mL (≈ 0.905 µM)
9 | C/C(=C\c1csc(C)n1)[C@@H]1C[C@@H]2O[C@]2(C)CCC[C@H](C)[C@H](O)[C@@H](C)C(=O)C(C)(C)[C@@H](O)CC(=O)O1 [epothilon B, reference compound] |  |  |  |  |  |  |  |  |  |  |  |  |  | IC50 ([13]; read-out: IC50): 4.7e-05 µM; IC50 ([14]; read-out: IC50): 3.3e-05 µM; IC50 [16]: 0.03 nM; IC50 [17]: 0.095 nM; IC50 [18]: 0.00015 µM; IC50 [19]: 0.051 nM; IC50 [20]: 0.067 nM
10 | NC[C@H]1O[C@H](O[C@H]2[C@H](O)[C@@H](O[C@H]3O[C@H](CO)[C@@H](O)[C@H](N)[C@H]3O)[C@H](N)C[C@@H]2N)[C@H](O)[C@@H](O)[C@@H]1O [kanamycin, reference compound] |  | 1.7 ^b µg/mL |  |  |  |  |  |  |  |  |  |  |  | 
11 | C[C@@H]1[C@H](O)[C@@H](C)/C=C/C=C/CC/C=C/C=C/C=C/C=C/C(O[C@H]2O[C@H](C)[C@@H](O)[C@H](N)[C@@H]2O)CC2O[C@](O)(CC(O)C(O)CCC(O)CC(O)CC(O)CC(=O)O[C@H]1C)CC(O)C2C(=O)O (stereo partly shown) [nystatin, reference compound] |  |  |  |  |  |  | 8.3 µg/mL (≈ 8.96 µM) | 8.3 µg/mL (≈ 8.96 µM) | 4.2 µg/mL (≈ 4.54 µM) |  |  |  |  | MIC ([10]; serial dilution 67-0.5 µg/mL): 2.1 µg/mL (≈ 2.27 µM); MIC ([12]; serial dilution 67-0.5 µg/mL): 4.2 µg/mL (≈ 4.54 µM)
12 | CN(C)[C@@H]1C(O)=C(C(N)=O)C(=O)[C@@]2(O)C(O)=C3C(=O)c4c(O)cccc4[C@@](C)(O)[C@H]3[C@H](O)[C@@H]12 [oxytetracycline, reference compound] | 4.2 (≈ 9.12 µM) |  | 0.2 (≈ 0.434 µM) |  |  |  |  |  |  |  |  |  |  | MIC [5, 25]: 0.8 µg/mL (≈ 1.74 µM); MIC ([6]; DSM1116, serial dilution 67-0.5 µg/mL, read-out: MIC): 3.3 µg/mL (≈ 7.17 µM)
13 | gentamycin [reference compound] |  |  |  |  |  | 0.4 ^d µg/mL |  |  |  |  |  |  |  | 
